Measurements from article PMC11020070, “Discovery of Protease-Activated Receptor 4 (PAR4)-Tethered Ligand Antagonists Using Ultralarge Virtual Screening” (ACS Pharmacology & Translational Science, 2024).
“Also recorded” adds a separate entry of the source.

Experiments:
PAR1 [1] = molecular target: T1, PAR1 (Homo sapiens, UniProt P25116); assay: Human platelet activation by PAR1 agonist peptide SFLLRN; assay type: cell-based; conditions: 10 μM compound, PAR1AP SFLLRN
T1 construct: endogenous in cells; host or cells: platelets
T1 sequence (P25116 22-425): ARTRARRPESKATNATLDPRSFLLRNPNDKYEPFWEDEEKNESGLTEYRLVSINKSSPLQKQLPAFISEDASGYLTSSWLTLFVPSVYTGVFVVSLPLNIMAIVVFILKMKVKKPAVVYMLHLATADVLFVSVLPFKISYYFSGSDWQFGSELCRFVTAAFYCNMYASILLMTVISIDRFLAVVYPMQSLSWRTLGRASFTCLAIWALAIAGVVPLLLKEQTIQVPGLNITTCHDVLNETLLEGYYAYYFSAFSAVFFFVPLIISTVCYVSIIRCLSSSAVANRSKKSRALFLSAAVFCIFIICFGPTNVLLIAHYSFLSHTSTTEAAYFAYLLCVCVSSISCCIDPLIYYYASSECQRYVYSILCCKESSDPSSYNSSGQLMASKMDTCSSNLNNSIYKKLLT
Procedure: (§1) Figure 5 (A) Off-target controls: % of vehicle control for γ-thrombin (100 nM), PAR4 component of α-thrombin (5 nM α-thrombin +1 μM vorapaxar), PAR4 agonist peptide 200 μM AYPGKF, 200 μM PAR1 agonist peptide SFLLRN, and GPVI agonist convulxin 3.16 nM.
(§2) Compounds were screened for inhibition activity against human PAR4 using 100 nM γ-thrombin or 200 μM PAR4-AP in a single-point assay (10 μM test compound). Dose–response curves were conducted for active compounds. Active compounds were also assessed at a single concentration of 10 μM against other agonists, including the PAR4 component of α-thrombin (5 nM α-thrombin +1 μM vorapaxar), the PAR1 agonist peptide (20 μM SFFLRN), and the GPVI receptor agonist convulxin (3 nM).

GPVI receptor = molecular target: T2, GPVI receptor (Homo sapiens, UniProt Q9HCN6); assay: Off-target control: convulxin activation of GPVI receptor in human platelets; assay type: cell-based; conditions: 10 μM compound, convulxin 3.16 nM
T2 construct: endogenous in cells; host or cells: washed human platelets
T2 sequence (Q9HCN6 21-339): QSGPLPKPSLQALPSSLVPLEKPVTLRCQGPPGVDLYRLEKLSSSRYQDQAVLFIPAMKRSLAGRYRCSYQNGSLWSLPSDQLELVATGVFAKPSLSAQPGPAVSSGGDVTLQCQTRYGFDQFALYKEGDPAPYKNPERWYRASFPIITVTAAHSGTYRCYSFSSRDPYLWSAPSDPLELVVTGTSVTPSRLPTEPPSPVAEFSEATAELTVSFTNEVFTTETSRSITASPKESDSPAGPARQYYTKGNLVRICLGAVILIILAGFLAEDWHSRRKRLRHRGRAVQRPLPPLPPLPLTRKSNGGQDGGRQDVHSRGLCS
T2 sequence (P30273 19-86 partner): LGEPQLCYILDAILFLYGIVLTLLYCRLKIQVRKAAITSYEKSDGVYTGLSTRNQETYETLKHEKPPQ
Procedure: The hit compound (7) was tested against several platelet activators including targeting PAR1, PAR4, and GPVI collagen receptors (Figure 5). […] Taken together, the inhibition of the off-target GPVI and the divergence of the inhibition of the γ-thrombin readouts PAC1 vs P-selectin are consistent with the C5 compound not being a specific antagonist of PAR4.
as §1, §2

thrombin = thrombin (Homo sapiens, UniProt P00734); assay: Fluorometric assay of in vitro thrombin activity; assay type: biochemical
Source text: The enamine-purchased 7 compound was confirmed using mass spectrometry and ^1H NMR (data not shown) and then was independently resynthesized at Vanderbilt University (VU).
(1 picture or pasted object on this page, not shown here)

PAR1 [2] = molecular target: T1, PAR1; assay: PAR1 component of α-thrombin activation (α-thrombin + BMS-3) in platelets; assay type: cell-based; conditions: read-out: PAR1 IC50 (Figure 6D)
Source text: Figure 6 (A) Distribution of IC50 values for the inhibition of human PAR4 vs mouse PAR4. Red indicates the 2 compounds highlighted in panels (B–D). (B) Structures of exemplar compounds. (C) Concentration–response curves for human vs mouse PAR4. (D) Concentration–response curves for the inhibition of pharmacologically defined α-thrombin components for PAR1 (α-thrombin + BMS-3) vs PAR4 (α-thrombin + vorapaxar).
α-thrombin activates both PAR1 and PAR4, and the individual PAR1 or PAR4 component can be isolated pharmacologically. […] With 20 substitutions between PAR1 and PAR4 within 5 Å of the predicted 31 binding site, the basis for these selectivity differences is not known (Figure S4). As we continue to probe for a selective PAR4 antagonist, mutagenesis of individual residues will be conducted.

IC50 (PAR1 [2]) | Compound | inhibition of PAR1 agonist peptide activation (PAR1 [1]) | inhibition of convulxin activation of GPVI receptor (GPVI receptor) | direct inhibition of thrombin enzymatic activity (thrombin)
 | Cc1nc(NC(=O)c2cc(-c3ccccc3)n(-c3ccccc3)n2)n[nH]1 [Compound 7] | did not inhibit | did not inhibit | do not inhibition; also recorded: failed to directly inhibit
 | Cc1cc(C(=O)Nc2n[nH]c(OC(F)F)n2)nn1-c1ccccc1 [Compound 9] |  |  | do not inhibition
5.81 µM | Cn1nc(C(=O)Nc2n[nH]c(-c3c(F)cccc3F)n2)cc1C1CC1 [Compound 12] |  |  | 
1.51 µM | O=C(Nc1n[nH]c(-c2ccc(F)cc2F)n1)c1nn(-c2ccccc2)c2c1CCCC2 [Compound 31] |  |  | 
